Several values for one entry are separate records, joined by “and”; a condition that tells them apart may be missing. Equal values may be shown once. Read-outs that look alike come from different tables or passages of the source.
B1: IFN-γ: Recombinant mouse IFN-γ purchased from Genzyme (protein, UniProt P01580 23-155, looked up)
Interferon gamma: HGTVIESLESLNNYFNSSGIDVEEKSLFLDIWRNWQKDGDMKILQSQIISFYLRLFEVLKDNQAISNNISVIESHLITTFFSNSKAKKDAFMSIAKFEVNNPQVQRQAFNELIRVVHQLLPESSLRKRKRSRC
B2: IL-12: Murine rIL-12 provided by Genetics Institute (protein, UniProt P43431 23-215; P43432 23-335, looked up)
Interleukin-12 subunit alpha: RVIPVSGPARCLSQSRNLLKTTDDMVKTAREKLKHYSCTAEDIDHEDITRDQTSTLKTCLPLELHKNESCLATRETSSTTRGSCLPPQKTSLMMTLCLGSIYEDLKMYQTEFQAINAALQNHNHQQIILDKGMLVAIDELMQSLNHNGETLRQKPPVGEADPYRVKMKLCILLHAFSTRVVTINRVMGYLSSA
Interleukin-12 subunit beta: MWELEKDVYVVEVDWTPDAPGETVNLTCDTPEEDDITWTSDQRHGVIGSGKTLTITVKEFLDAGQYTCHKGGETLSHSHLLLHKKENGIWSTEILKNFKNKTFLKCEAPNYSGRFTCSWLVQRNMDLKFNIKSSSSSPDSRAVTCGMASLSAEKVTLDQRDYEKYSVSCQEDVTCPTAEETLPIELALEARQQNKYENYSTSFFIRDIIKPDPPKNLQMKPLKNSQVEVSWEYPDSWSTPHSYFSLKFFVRIQRKKEKMKETEEGCNQKGAFLVEKTSTEVQCKGGNVCVQAQDRYYNSSCSKWACVPCRVRS

Tests used:
VSV [1] = assay type: cell-based, Vesicular stomatitis virus; settings: for VSV in supernatant: NB41A3, 8 h pi; for Effect on IFN-γ-induced inhibition of VSV replication: NB41A3 cells
Influenza virus A/WSN/33 = assay type: cell-based
Sindbis AR339 virus = assay type: cell-based
HSV-1 = assay type: cell-based, Herpes Simplex virus-1
VSV [2] = assay type: cell-based, Vesicular stomatitis virus; settings: RAW, inhibitors, moi = 1, 8 h pi
VSV [3] = assay type: cell-based, Vesicular stomatitis virus; settings: C6 Glia, moi = 1, 8 h pi
VSV [4] = assay type: in vivo, mice
type I NOS = type I NOS (Homo sapiens, UniProt P29475); settings: Moore et al, 1993; cited from earlier work
aortic endothelial cells = settings: Clark et al, 1988; cited from earlier work
[5] = test system: NOS activity in NB41A3 neuroblastoma cells; experiment: NO2 release into culture medium (Griess reagent), NB41A3 cells; assay type: cell-based
Experimental: (§1) FIGS. 2A–2C show the kinetics of the IFN-γ augmented NOS activity in NB41A3 neuroblastoma, C6 rat glioma and RAW cells. Aliquots of supernatant were removed from triplicate wells of 2×10^5 NB41A3 (FIG. 2A), RAW (FIG. 2B) or C6 (FIG. 2C) cells, cultured with medium or with 5 ng IFN-γ for up to 72 hours. The medium was assayed for the presence of NO2 using the Griess reagent, and expressed as nM NO2 ±S.D. present.
(§2) The concentration of NO in culture supernatants was determined by assaying its stable end-product, NO2 (Bredt et al, 1989). Briefly, equal volumes of experimental sample and Griess reagent (1% sulfanilamidide, 0.1% N-1-naphthylethylene-diamine, 5H3PO4) (Sigma) were incubated at room temperature for ten minutes. The reaction produces a pink color, which was quantitated at 540 nm against standards in the same buffer, using an automated plate reader (Bio-Tek, Inc., model EL309). The data is expressed as mM.

[6] = test system: NOS activity in RAW cells; experiment: NO2 release into culture medium (Griess reagent), RAW cells; assay type: cell-based, murine; settings: RAW macrophage line, incubation with 5 ng rIFNγ
Experimental: as §1, §2

[7] = test system: NOS activity in C6 rat glioma cells; experiment: NO2 release into culture medium (Griess reagent), C6 cells; assay type: cell-based; settings: astrocytes (C6), co-culture with IFN-γ
Experimental: as §1, §2

VSV [8] = test system: VSV; parameters: species or system mice; key: − = no visual staining; + = minimal staining; ++ = moderate staining; +++ = strong staining; settings: mouse, in vivo
MHC-I = test system: MHC-I; parameters: species or system mice; key: − = no visual staining; + = minimal staining; ++ = moderate staining; +++ = strong staining; settings: mouse, in vivo
MHC-II = test system: MHC-II; parameters: species or system mice; key: − = no visual staining; + = minimal staining; ++ = moderate staining; +++ = strong staining; settings: mouse, in vivo
IFN-R = test system: IFN-R; parameters: species or system mice; key: − = no visual staining; + = minimal staining; ++ = moderate staining; +++ = strong staining; settings: mouse, in vivo
IL-12 = test system: IL-12; parameters: species or system mice; key: − = no visual staining; + = minimal staining; ++ = moderate staining; +++ = strong staining; settings: mouse, in vivo
VSV [9] = test system: VSV; parameters: species or system mice; settings: mouse, in vivo, ip
[10] = parameters: species or system mice; settings: mouse, in vivo
VSV protein = assay type: cell-based, Vesicular stomatitis virus
VSV mRNA (N gene) = assay type: cell-based, Vesicular stomatitis virus
blood brain barrier [11] = test system: blood brain barrier; parameters: species or system mice; settings: mouse, in vivo
blood brain barrier [12] = settings: mouse, in vivo
[13] = 5 μg IFN-γ for 72 hours prior to infection, inhibitors 400 mM, 8 hour infection, moi = 1
[14] = Media (no IFN-γ), inhibitors 400 mM, 8 hour infection, moi = 1
[15] = IFN-γ 5 ng for 72 hours, inhibitors 400 mM, moi = 1
[16] = Medium, inhibitors 400 mM, moi = 1
[17] = NMDA 500 mM for two minutes, inhibitors 400 mM, moi = 1
[18] = IFN-γ 5 ng for 72 hours, inhibitors 400 mM

Chain of type I NOS (P29475 whole entry): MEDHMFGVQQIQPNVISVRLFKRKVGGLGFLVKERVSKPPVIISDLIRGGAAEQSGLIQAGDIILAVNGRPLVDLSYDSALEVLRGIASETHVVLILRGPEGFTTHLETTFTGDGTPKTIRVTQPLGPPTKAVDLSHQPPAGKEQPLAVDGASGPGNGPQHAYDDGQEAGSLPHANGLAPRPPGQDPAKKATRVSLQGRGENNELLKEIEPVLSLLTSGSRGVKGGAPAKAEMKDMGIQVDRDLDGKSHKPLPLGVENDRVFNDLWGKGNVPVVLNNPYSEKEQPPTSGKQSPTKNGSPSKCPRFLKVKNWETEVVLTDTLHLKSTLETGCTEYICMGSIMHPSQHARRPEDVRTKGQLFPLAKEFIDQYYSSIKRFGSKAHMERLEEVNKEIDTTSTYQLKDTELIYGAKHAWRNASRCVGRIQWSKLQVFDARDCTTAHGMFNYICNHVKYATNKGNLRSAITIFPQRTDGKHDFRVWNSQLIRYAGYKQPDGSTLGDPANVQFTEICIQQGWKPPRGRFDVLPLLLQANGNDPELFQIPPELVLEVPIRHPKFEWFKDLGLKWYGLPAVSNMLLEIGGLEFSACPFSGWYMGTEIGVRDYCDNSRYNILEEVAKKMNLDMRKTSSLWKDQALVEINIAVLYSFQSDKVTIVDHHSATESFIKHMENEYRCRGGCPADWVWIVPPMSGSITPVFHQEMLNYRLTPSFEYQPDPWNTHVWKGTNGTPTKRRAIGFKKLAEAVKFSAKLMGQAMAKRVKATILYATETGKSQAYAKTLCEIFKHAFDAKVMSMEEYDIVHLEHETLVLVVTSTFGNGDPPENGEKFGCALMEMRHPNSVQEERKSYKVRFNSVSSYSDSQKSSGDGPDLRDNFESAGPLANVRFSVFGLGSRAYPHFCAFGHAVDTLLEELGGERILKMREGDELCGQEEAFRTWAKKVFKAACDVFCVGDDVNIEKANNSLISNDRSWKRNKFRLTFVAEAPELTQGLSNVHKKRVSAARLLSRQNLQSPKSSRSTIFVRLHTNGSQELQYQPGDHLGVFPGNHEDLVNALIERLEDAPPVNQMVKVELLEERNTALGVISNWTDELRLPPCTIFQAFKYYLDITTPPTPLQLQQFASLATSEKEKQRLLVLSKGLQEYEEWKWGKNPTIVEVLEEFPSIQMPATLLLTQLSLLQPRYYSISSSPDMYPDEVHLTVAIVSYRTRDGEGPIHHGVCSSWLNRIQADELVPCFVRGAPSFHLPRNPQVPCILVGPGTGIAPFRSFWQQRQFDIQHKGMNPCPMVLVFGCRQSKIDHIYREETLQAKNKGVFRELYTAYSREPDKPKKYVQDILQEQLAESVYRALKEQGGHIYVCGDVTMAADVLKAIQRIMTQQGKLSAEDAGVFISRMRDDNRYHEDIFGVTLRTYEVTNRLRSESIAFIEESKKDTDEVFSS

| Molecule | VSV infectious virus in supernatant (VSV [1]; [13]) | VSV infectious virus in supernatant (VSV [1]; [14]) | VSV in supernatant (VSV [1]; [15]) | VSV in supernatant (VSV [1]; [16]) | VSV in supernatant (VSV [1]; [17]) | Influenza infectious virus in supernatant (Influenza virus A/WSN/33; [13]) | Influenza infectious virus in supernatant (Influenza virus A/WSN/33; [14]) | Sindbis infectious virus in supernatant (Sindbis AR339 virus) | HSV-1 infectious virus in supernatant (HSV-1) | VSV in supernatant (VSV [2]; IFN-γ 5 ng for 72 hours) | VSV in supernatant (VSV [2]; Medium) | VSV in supernatant (VSV [3]; [18]) | VSV in supernatant (VSV [3]; Medium, inhibitors 400 mM) | VSV in supernatant (VSV [3]) | also measured |
| --- | --- | --- | --- | --- | --- | --- | --- | --- | --- | --- | --- | --- | --- | --- | --- |
| O=[N+]([O-])c1cccc2cn[nH]c12 [7-NI, 7-nitroindazole] | 5.752 ± .331 Log10 PFU | 5.985 ± .428 Log10 PFU | 5.76 ± .10 log10 PFU | 5.76 ± .18 log10 PFU | 5.57 ± .15 log10 PFU | 3.897 ± .089 Log10 PFU | 5.560 ± .489 Log10 PFU | 4.935 ± .056 Log10 PFU and 3.897 ± .089 Log10 PFU | 5.159 ± .194 Log10 PFU and 5.170 ± .264 Log10 PFU | 4.84 ± .15 log10 PFU | 5.87 ± .08 log10 PFU | 4.54 ± .14 log10 PFU | 5.83 ± .14 log10 PFU | 4.59 ± .52 log10 PFU | Effect on IFN-γ-induced inhibition of VSV replication (VSV [1]): abrogation; Effect on IFN-γ-induced inhibition of HSV-1 replication (HSV-1): abrogation; Effect on IL-12-mediated enhanced clearance of VSV (VSV [4]; BALB/c male mice, 50 mg/kg with 200 ng IL-12, four days post infection): abrogated; Geometric mean titer (GMT) of virus in brain homogenates compared to indazole-treated mice (VSV [4]; BALB/c male mice, 50 mg/kg, four days post infection): ten-fold greater GMT; NOS isoform selectivity (type I NOS): selective inhibitor of type I, but not types II or III NOS |
| c1ccc2[nH]ncc2c1 [Indazole, indazole] | 3.678 ± .174 Log10 PFU | 5.460 ± .408 Log10 PFU | 4.23 ± .29 log10 PFU | 5.58 ± .27 log10 PFU | 4.39 ± .36 log10 PFU | 3.546 ± .212 Log10 PFU | 5.268 ± .350 Log10 PFU | 5.053 ± .217 Log10 PFU and 3.752 ± .046 Log10 PFU | 5.140 ± .204 Log10 PFU and 3.175 ± .369 Log10 PFU | 4.49 ± .48 log10 PFU | 5.45 ± .21 log10 PFU | 4.48 ± .42 log10 PFU | 5.63 ± .19 log10 PFU | 4.48 ± .17 log10 PFU | – |
| CN[C@H](CC(=O)O)C(=O)O [NMDA] | – | – | – | – | 3.71 ± .20 log10 PFU | – | – | – | – | – | – | – | – | 5.54 ± .24 log10 PFU | – |
| NC1=NN(c2cccc(C(F)(F)F)c2)CC1 [BW 755c] | – | – | – | – | – | – | – | – | – | – | – | – | – | – | TNF-induced injury to aortic endothelial cells (aortic endothelial cells): reduced |
| CN[C@@H](CCCNC(=N)N)C(=O)O [L-NMA, L-N-Methyl Arginine] | 5.761 ± .151 Log10 PFU | 5.948 ± .089 Log10 PFU | 5.77 ± .21 log10 PFU | 5.76 ± .25 log10 PFU | 5.59 ± .27 log10 PFU | 3.767 ± .208 Log10 PFU | 5.810 ± .131 Log10 PFU | 5.033 ± .238 Log10 PFU and 3.796 ± .084 Log10 PFU | 5.359 ± .225 Log10 PFU and 5.227 ± .208 Log10 PFU | 5.71 ± .09 log10 PFU | 5.83 ± .13 log10 PFU | 5.59 ± .26 log10 PFU | 5.85 ± .08 log10 PFU | 5.38 ± .37 log10 PFU | Effect on IFN-γ-induced inhibition of VSV replication (VSV [1]): abrogation; Effect on IFN-γ-induced inhibition of HSV-1 replication (HSV-1): abrogation |
| B1 | – | – | – | – | – | – | – | 3.318 ± .373 Log10 PFU | 3.467 ± .408 Log10 PFU | – | – | – | – | – | VSV infectious virus in supernatant (VSV [1]): 3.752 ± .034 Log10 PFU; VSV replication in NB41A3 cells (VSV [1]): significantly inhibited; Influenza infectious virus in supernatant (Influenza virus A/WSN/33): 3.810 ± .130 Log10 PFU; Replication of influenza virus A/WSN/33 in NB41A3 cells (Influenza virus A/WSN/33): significantly inhibited; Replication of Sindbis virus in NB41A3 cells (Sindbis AR339 virus): significantly inhibited; HSV-1 replication in NB41A3 cells (HSV-1): significantly inhibited; NO production by NB41A3 cells ([5]; IFN-γ treatment): significantly increased; Time to substantial levels of NO2 production ([5]; Neuroblastoma cells, co-culture with IFN-γ): 72 h; Time to plateau levels of NO2 production [6]: ≤ 24 h; Time to substantial levels of NO2 production [7]: 72 h |
| B2 | – | – | – | – | – | – | – | – | – | – | – | – | – | – | VSV relative intensity of staining (VSV [8]): +++ and ++ and + and −; MHC-I relative intensity of staining (MHC-I): ++ and + and +++ and −; MHC-II relative intensity of staining (MHC-II): ++ and + and +++ and −; IFN-R relative intensity of staining (IFN-R): ++ and − and +; IL-12 relative intensity of staining (IL-12): + and − and ++; Decrease of VSV titer in brain homogenates (VSV [4]; mouse, in vivo): about 100 fold; Number of survivors versus control medium (VSV [9]): greater; Survival and weight recovery from VSV infection (VSV [9]): not able to rescue; Survival rate from VSV infection versus control mice (VSV [9]): twice the survival rate; Time at which weight exceeded initial measurements [10]: ≤ 12 days after infection; Time at which weight exceeded initial measures [10]: ≤ 12 days after infection; Weight loss recovery from VSV infection [10]: rapidly recover from the weight loss; Difference in relative amounts of viral protein between treated and untreated samples (VSV protein): approximately 80%; Difference in relative amounts of viral mRNA between treated and untreated samples (VSV mRNA (N gene)): approximately 20%; Breakage of the BBB (Evans blue) (blood brain barrier [11]): did not show breakage of the BBB; Integrity of the BBB (TEM, intercellular junction gaps) (blood brain barrier [12]): not enough to disrupt the integrity of the BBB |
